ChEMBL document CHEMBL1151312, “A concise conversion of (-)-sclareol into (+)-coronarin E and (-)-7-epi-coronarin A” (J Nat Prod, 1998)
Converted amounts (≈) assume the structure as drawn.

Test system: V79
Assay: Cytotoxicity against Chinese hamster V79 cells
Assay type: cell-based
Details: Cricetulus griseus

## C=C1[C@@H](O)C[C@H]2C(C)(C)CCC[C@]2(C)[C@H]1/C=C/c1ccoc1 [CORONARIN A]
  IC50: 1.65 µg/mL (≈ 5.49 µM)
